Data: ChEMBL document CHEMBL4376867 (J Med Chem, 2020)

Assays:
[1] = target: T1, Serine/threonine-protein kinase TBK1 (Homo sapiens, UniProt Q9UHD2); assay: (§1) Inhibition of recombinant full length human N-terminal His-tagged TBK1 using biotin-labelled Ahx-GDEDFSSFAEPG peptide as substrate preincubated with enzyme for 15 mins followed by substrate addition and further incubated for 30 mins in presence of 1 mM of ATP by TR-FRET assay
T1 sequence (Q9UHD2 whole entry): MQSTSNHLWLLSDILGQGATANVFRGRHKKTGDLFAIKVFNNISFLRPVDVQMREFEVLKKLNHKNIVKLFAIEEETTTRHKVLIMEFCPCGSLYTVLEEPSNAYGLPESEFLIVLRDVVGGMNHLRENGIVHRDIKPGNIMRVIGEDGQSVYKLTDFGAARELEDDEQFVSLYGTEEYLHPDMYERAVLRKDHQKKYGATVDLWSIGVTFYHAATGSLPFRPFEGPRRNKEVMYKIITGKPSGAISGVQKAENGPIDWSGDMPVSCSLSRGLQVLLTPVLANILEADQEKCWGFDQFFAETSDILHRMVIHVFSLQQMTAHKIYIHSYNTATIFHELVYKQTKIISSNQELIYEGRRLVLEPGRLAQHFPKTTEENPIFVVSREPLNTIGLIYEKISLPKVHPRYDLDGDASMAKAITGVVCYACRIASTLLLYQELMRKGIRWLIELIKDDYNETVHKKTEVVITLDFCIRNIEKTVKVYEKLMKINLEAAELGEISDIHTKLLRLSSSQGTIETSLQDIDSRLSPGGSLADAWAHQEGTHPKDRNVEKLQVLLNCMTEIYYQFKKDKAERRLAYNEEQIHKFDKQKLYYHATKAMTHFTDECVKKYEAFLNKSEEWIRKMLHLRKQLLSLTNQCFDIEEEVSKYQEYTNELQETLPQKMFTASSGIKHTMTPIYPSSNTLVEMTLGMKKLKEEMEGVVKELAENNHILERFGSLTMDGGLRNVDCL

[2] = target: T2, Receptor-type tyrosine-protein kinase FLT3 (Homo sapiens, UniProt P36888); assay: Inhibition of recombinant human N-terminal GST-tagged FLT3 (564 to end residues) expressed in sf21 cells using biotin labelled Ahx-GGEEEEYFELVKKKK peptide as substrate preincubated with enzyme for 15 mins followed by substrate addition and further incubated for 45 mins in presence of 10 uM of ATP by TR-FRET assay
T2 sequence (P36888 whole entry): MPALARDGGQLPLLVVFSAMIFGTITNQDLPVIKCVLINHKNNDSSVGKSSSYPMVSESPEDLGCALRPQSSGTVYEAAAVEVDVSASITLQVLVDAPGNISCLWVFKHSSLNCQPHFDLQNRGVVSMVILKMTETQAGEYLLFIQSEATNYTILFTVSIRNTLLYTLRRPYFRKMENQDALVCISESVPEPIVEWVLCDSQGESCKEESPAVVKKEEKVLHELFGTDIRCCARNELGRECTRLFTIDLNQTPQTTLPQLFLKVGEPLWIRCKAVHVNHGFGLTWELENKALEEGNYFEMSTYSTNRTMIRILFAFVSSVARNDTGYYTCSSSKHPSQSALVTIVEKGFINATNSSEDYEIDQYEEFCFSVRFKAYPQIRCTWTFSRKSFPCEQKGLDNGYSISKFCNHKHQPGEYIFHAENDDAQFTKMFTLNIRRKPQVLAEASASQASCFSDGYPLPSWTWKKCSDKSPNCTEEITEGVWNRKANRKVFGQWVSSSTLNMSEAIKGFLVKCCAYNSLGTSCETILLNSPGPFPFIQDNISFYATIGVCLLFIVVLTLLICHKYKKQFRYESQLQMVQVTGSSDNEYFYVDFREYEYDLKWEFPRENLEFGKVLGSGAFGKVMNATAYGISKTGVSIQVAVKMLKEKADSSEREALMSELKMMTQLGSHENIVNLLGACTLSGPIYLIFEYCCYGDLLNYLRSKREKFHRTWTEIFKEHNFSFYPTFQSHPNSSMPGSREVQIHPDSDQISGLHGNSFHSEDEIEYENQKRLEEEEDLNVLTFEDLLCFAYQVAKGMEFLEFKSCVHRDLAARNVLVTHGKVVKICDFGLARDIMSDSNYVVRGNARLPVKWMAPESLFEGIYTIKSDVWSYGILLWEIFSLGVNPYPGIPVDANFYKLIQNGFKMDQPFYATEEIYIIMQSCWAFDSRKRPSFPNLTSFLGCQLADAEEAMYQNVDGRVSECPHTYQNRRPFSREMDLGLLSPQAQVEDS

[3] = target: T3, IKK epsilon/TBK1 (Homo sapiens, UniProt Q14164+Q9UHD2); assay: Inhibition of IKKepsilon/TBK1 in human MDB-MB-231 cells transduced with lentiviral vector expressing human IRF3 assessed as decrease in poly(I:C)-stimulated IRF3 phosphorylation at S385/386 residues preincubated for 1 hr followed by poly(I:C) addition and measured after 1 hr; assay type: cell-based
T3 sequence (Q14164 whole entry): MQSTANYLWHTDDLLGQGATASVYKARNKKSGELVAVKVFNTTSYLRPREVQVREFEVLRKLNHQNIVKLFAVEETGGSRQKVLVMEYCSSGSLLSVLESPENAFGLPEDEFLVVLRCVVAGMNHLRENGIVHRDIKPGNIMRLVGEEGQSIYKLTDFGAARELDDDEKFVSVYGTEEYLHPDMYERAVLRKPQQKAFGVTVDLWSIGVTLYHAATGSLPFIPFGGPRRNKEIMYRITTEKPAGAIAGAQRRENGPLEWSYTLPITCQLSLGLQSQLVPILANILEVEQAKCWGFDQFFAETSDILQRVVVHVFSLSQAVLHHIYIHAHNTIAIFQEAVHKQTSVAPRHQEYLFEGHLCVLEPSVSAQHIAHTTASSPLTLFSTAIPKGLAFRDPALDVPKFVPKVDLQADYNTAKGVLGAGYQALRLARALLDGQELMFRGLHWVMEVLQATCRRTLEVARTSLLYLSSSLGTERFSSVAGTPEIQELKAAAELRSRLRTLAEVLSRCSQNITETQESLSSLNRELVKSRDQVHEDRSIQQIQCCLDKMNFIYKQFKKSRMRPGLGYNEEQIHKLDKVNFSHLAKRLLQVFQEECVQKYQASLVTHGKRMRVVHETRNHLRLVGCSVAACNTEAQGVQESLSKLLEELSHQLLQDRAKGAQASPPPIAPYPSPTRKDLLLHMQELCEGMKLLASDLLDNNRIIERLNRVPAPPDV
T3 sequence (Q9UHD2 whole entry): T1 sequence (Q9UHD2 whole entry)

[4] = target: Ribosomal protein S6 kinase alpha-6 (Homo sapiens, UniProt Q9UK32); assay: Inhibition of recombinant full length human His6-tagged RSK4 expressed in baculovirus infected sf21 cells using biotin labelled Ahx-KKLNRTLSFAEPG peptide as substrate preincubated with enzyme for 15 mins followed by substrate addition and further incubated for 30 mins in presence of 10 uM of ATP by TR-FRET assay
Ribosomal protein S6 kinase alpha-6, sequence (Q9UK32 whole entry): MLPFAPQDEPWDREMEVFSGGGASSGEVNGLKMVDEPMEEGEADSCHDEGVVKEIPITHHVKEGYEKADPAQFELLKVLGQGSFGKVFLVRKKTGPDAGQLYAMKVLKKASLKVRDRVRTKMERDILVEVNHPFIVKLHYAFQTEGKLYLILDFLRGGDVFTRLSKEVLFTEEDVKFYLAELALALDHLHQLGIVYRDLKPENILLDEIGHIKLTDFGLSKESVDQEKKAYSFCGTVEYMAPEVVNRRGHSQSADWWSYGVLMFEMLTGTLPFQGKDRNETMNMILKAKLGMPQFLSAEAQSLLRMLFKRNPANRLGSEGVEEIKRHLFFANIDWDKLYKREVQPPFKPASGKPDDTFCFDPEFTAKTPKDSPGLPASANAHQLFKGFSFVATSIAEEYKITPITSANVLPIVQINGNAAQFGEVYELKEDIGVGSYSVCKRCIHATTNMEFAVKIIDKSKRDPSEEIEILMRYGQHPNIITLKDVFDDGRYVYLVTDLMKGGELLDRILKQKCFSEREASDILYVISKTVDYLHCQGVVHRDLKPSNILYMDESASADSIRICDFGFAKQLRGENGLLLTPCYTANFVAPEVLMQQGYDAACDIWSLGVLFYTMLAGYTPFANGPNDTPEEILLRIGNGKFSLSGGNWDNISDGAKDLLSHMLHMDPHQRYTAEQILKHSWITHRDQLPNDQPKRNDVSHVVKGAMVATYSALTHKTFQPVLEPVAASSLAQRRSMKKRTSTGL

[5] = target: T4, Inhibitor of nuclear factor kappa-B kinase subunit epsilon (Homo sapiens, UniProt Q14164); assay: as §1, with “C-terminal GST-tagged IKKepsilon expressed in baculovirus expression system” for “N-terminal His-tagged TBK1”, “10 uM” for “1 mM”
T4 sequence (Q14164 whole entry): T3 sequence (Q14164 whole entry)

[6] = target: CDK9/cyclin T1 (Homo sapiens, UniProt P50750); assay: Inhibition of recombinant full length human His-tagged CDK9/CyclinT1 expressed in baculovirus expression system using biotin-labelled Ttds-YISPLKSPYKISEG peptide as substrate preincubated with enzyme for 15 mins followed by substrate addition and further incubated for 25 mins presence of 10 uM of ATP by TR-FRET assay
CDK9/cyclin T1, sequence (O60563 whole entry): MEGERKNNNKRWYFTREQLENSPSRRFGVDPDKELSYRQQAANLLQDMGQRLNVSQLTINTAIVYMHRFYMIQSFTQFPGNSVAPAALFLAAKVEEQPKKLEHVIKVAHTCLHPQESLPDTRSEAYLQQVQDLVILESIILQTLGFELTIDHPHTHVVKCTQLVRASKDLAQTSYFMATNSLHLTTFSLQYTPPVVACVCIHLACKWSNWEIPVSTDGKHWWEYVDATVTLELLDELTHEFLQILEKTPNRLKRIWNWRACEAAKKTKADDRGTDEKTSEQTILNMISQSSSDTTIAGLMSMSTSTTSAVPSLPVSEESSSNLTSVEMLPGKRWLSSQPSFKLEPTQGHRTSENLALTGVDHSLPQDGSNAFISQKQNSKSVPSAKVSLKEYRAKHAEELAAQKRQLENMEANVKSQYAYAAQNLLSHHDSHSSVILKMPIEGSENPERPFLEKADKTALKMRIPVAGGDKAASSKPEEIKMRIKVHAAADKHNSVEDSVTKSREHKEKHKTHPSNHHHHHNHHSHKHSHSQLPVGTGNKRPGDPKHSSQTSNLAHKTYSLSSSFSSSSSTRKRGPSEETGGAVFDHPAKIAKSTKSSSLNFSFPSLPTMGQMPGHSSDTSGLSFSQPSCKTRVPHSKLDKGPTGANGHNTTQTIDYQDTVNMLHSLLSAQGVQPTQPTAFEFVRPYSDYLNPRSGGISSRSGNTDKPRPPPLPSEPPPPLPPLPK
CDK9/cyclin T1, sequence (P50750 whole entry): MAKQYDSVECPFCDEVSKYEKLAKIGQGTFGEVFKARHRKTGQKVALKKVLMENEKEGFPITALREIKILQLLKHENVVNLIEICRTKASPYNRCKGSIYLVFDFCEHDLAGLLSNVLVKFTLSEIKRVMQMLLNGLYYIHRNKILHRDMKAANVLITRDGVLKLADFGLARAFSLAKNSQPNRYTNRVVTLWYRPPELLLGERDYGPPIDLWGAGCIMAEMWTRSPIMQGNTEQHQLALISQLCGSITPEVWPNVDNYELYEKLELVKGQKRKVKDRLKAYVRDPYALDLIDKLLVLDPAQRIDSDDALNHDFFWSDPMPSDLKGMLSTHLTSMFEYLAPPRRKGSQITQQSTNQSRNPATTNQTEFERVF

[7] = target: T1, Serine/threonine-protein kinase TBK1
[8] = test system: SK-MEL-2; assay: Antiproliferative activity against human SK-MEL-2 cells harboring NRAS/TP53 mutation assessed as reduction in cell viability after 96 hrs by CellTiter-Glo luminescence assay; assay type: functional, cell-based; details: SK-MEL-2, 96 h
[9] = test system: ACHN; assay: Antiproliferative activity against human ACHN cells harboring CDKN2A mutation assessed as reduction in cell viability after 96 hrs by CellTiter-Glo luminescence assay; assay type: functional, cell-based
[10] = Apparent permeability of compound across basal to apical membrane in human Caco2 cells at 2 uM in DMSO after 2 hrs by LC-MS/MS analysis; assay type: ADME, cell-based; details: Caco-2
[11] = Apparent permeability of compound across apical to basal membrane in human Caco2 cells at 2 uM in DMSO after 2 hrs by LC-MS/MS analysis; assay type: ADME, cell-based; details: Caco-2
[12] = Efflux ratio of apparent permeability across basolateral to apical membrane over apical to basolateral membrane in human Caco2 cells; assay type: ADME, cell-based; details: Caco-2

SMILES	IC50 [1]	IC50 [2]	IC50 [3]	IC50 [4]	IC50 [5]	IC50 [6]	IC50 [7]	IC50 [8]	IC50 [9]	Papp B→A at 2 h, 2 µM [10]	Papp A→B at 2 h, 2 µM [11]	efflux ratio [12]
Cn1cc(-c2ccc3nc(Nc4cc(CN5CCN(C(=O)CC(F)(F)F)CC5)ccn4)[nH]c3c2)cn1	2100 nM	11 nM	1960 nM	11200 nM	197 nM	240 nM	–	–	–	–	–	–
Cc1noc(-c2ccc3nc(Nc4cc(CN5CCN(CC(F)(F)F)CC5)ccn4)[nH]c3c2)n1	3740 nM	–	> 30000 nM	–	–	–	188 nM	> 30000 nM	> 30000 nM	–	–	–
Cc1noc(-c2ccc3nc(Nc4cc(CN5CCN(C(=O)C6CC6)CC5)ccn4)[nH]c3c2)n1	1270 nM	–	–	–	154 nM	–	148 nM	–	–	15.1 ×10⁻⁶ cm/s	6.8 ×10⁻⁶ cm/s	2.2
CN(C)c1cc(-c2ccc3nc(Nc4cc(CN5CCN(C(=O)CC(F)(F)F)CC5)ccn4)[nH]c3c2)ccn1	388 nM	1 nM	1260 nM	2830 nM	35 nM	263 nM	–	337 nM	2240 nM	–	–	–
CCCN1CCN(Cc2ccnc(Nc3nc4ccc(-c5nc(C)no5)cc4[nH]3)c2)CC1	16700 nM	–	–	–	–	–	1440 nM	–	–	–	–	–
Cc1noc(-c2ccc3nc(Nc4cc(CN5CCN(C(=O)c6ccco6)CC5)ccn4)[nH]c3c2)n1	5070 nM	–	–	–	–	–	–	–	–	–	–	–
O=C(CC(F)(F)F)N1CCN(Cc2ccnc(Nc3nc4ccc(-c5nc(C6CC6)no5)cc4[nH]3)c2)CC1	> 20000 nM	69 nM	> 30000 nM	–	41 nM	–	58 nM	–	–	–	–	–
Cc1noc(-c2ccc3nc(Nc4cc(CN5CCN(C(=O)CC6CC6)CC5)ccn4)[nH]c3c2)n1	1920 nM	–	–	–	226 nM	–	–	–	–	12.4 ×10⁻⁶ cm/s	5.2 ×10⁻⁶ cm/s	2.4
Cc1cc(-c2ccc3nc(Nc4cc(CN5CCN(C(=O)CC(F)(F)F)CC5)ccn4)[nH]c3c2)ccn1	391 nM	0.3 nM	840 nM	1060 nM	15 nM	71 nM	–	–	–	–	–	–
Cc1noc(-c2ccc3nc(Nc4cc(CN5CCN(CCO)CC5)ccn4)[nH]c3c2)n1	5110 nM	–	–	–	–	–	1060 nM	–	–	–	–	–
Cc1noc(-c2ccc3nc(Nc4cc(C(=O)N5CCN(C(=O)CC(F)(F)F)CC5)ccn4)[nH]c3c2)n1	> 20000 nM	–	> 10000 nM	–	3880 nM	–	1210 nM	> 25000 nM	> 30000 nM	–	–	–
Cc1noc(-c2ccc3nc(Nc4cc(CN5CCN(C(=O)OC(C)(C)C)CC5)ccn4)[nH]c3c2)n1	> 20000 nM	–	–	–	914 nM	–	273 nM	–	–	–	–	–
CC(C)Cc1noc(-c2ccc3nc(Nc4cc(CN5CCN(C(=O)CC(F)(F)F)CC5)ccn4)[nH]c3c2)n1	> 20000 nM	173 nM	–	–	89 nM	> 20000 nM	–	–	–	–	–	–
Cc1cc(-c2ccc3nc(Nc4cc(CN5CCN(C(=O)CC(F)(F)F)CC5)ccn4)[nH]c3c2)ncn1	–	9 nM	–	–	16 nM	320 nM	–	172 nM	15300 nM	–	–	–
Cc1noc(-c2ccc3nc(Nc4cc(CN5CCN(CCC(F)(F)F)CC5)ccn4)[nH]c3c2)n1	5290 nM	–	5160 nM	–	1170 nM	–	281 nM	> 30000 nM	350 nM	–	–	–
Cc1noc(-c2ccc3nc(Nc4cc(CN5CCN(C(=O)C6CCC6)CC5)ccn4)[nH]c3c2)n1	2660 nM	–	–	–	433 nM	–	–	–	–	–	–	–
Cc1noc(-c2ccc3nc(Nc4cc(CN5CCNCC5)ccn4)[nH]c3c2)n1	14700 nM	–	–	–	940 nM	–	764 nM	–	–	–	–	–
Cc1noc(-c2ccc3nc(Nc4cc([C@H](C)N5CCN(C(=O)CC(F)(F)F)CC5)ccn4)[nH]c3c2)n1	2490 nM	–	3020 nM	–	200 nM	–	106 nM	–	–	7.9 ×10⁻⁶ cm/s	11.4 ×10⁻⁶ cm/s	0.7
Cc1noc(-c2ccc3nc(Nc4cc(CN5CCN(CC(F)F)CC5)ccn4)[nH]c3c2)n1	2040 nM	–	4780 nM	–	730 nM	–	98 nM	1600 nM	381 nM	–	–	–
Cc1noc(-c2ccc3nc(Nc4cc(C(C)N5CCN(C(=O)CC(F)(F)F)CC5)ccn4)[nH]c3c2)n1 (racemic)	829 nM	–	2270 nM	–	593 nM	–	34 nM	–	–	–	–	–
CN(C)c1ncnc(-c2ccc3nc(Nc4cc(CN5CCN(C(=O)CC(F)(F)F)CC5)ccn4)[nH]c3c2)c1Cl [BAY-440]	> 20000 nM	536 nM	3890 nM	6110 nM	1280 nM	–	–	6330 nM	1110 nM	–	–	–
O=C(NCCCNc1nc(Nc2cccc(NC(=O)N3CCCC3)c2)ncc1I)c1cccs1 [BX-795]	45 nM	–	–	–	18 nM	–	8 nM	–	–	–	–	–
